In patent US7662388B2, “Endogenous peptide and active subfragments thereof” (Innoventus Project AB, priority 2003, dated 2010):

Tests used:
T241 fibrosarcoma cells [1] = test: TUNEL and Ki67 staining of tumour sections; type: in vivo, mice
Experimental: Paraffin-sections of tumours from control- or HRGP-treated animals were immunohistochemically (IHC) stained for CD31 and Ki67 using a goat anti-mouse CD31 antibody (1506; Santa Cruz), diluted 1:500 and incubated at +4° C. over night, and a rat anti-mouse Ki67 antibody (TEC-3/M7249; DAKO) diluted 1:50 and incubated for 30 min. at room temperature, according to standard IHC procedures. Detection of apoptotic cells by the TUNEL-technique was performed using ApopTag™ (Intergen Company) according to the manufacturer's protocol. Stereological quantification of vascular parameters was performed as described earlier by Weibel et al (1979) and Gundersen et al (1988). Quantification of the relative number of Tunel- and Ki67-positive cells was calculated from approximately 3000 cells per tumour section, in three tumours from each treatment group. Significance at the level of P<0.05 was calculated using Students t-test.

[2] = system: NIH 3T3 murine fibroblasts; test: chemotaxis assay in modified Boyden chamber, NIH 3T3 fibroblasts; type: cell-based; conditions: 100 ng/ml HRGP
Experimental: The porcine aortic endothelial (PAE) cell line overexpressing FGF receptor-1 (FGFR-1) (Wennström et al 1992) was cultured in Ham's F12/10% fetal bovine serum (FCS) and NIH 3T3 murine fibroblasts were cultured in Dulbecco's modified medium (DMEM)/10% newborn calf serum (NCS). F12, DMEM and serum were bought from Life Technologies. Primary bovine adrenal cortex capillary endothelial (BCE) cells were cultured on gelatin-coated dishes in DMEM/10% NCS and 2 ng/ml FGF-2 (Boehringer Mannheim). For chemotaxis assays, both PAE and NIH 3T3 cells were serum-starved over night in 0.1% BSA and BCE cells in 0.5% NCS. Human embryonic kidney (HEK) 293-EBNA cells were cultured in DMEM/10% FCS. Approximately every second month they were given 0.25 mg/ml G418 (Calbiochem) to ensure positive selection of the EBNA-1 expressing cells.
A migration assay was performed in a modified Boyden chamber as described earlier (Auerbach et al., 1991) using micropore polycarbonate filters (8 μm thick, 8 μm pore) coated with type-1 collagen solution at 100 μg/ml (Vitrogen 100, Collagen Corp). […] After 5 h at 37° C., migrated cells were stained with Giemsa and counted using an image analysis software (Easy Image Analysis) from Tekno Optik AB, Sweden. All samples were analysed in at least six parallel wells for each treatment.

T241 fibrosarcoma cells [3] = test: fibrosarcoma tumour growth in mice (HRGP); type: in vivo; conditions: fibrosarcoma-bearing mice, summary of experiment 4
Experimental: Animal work was carried out at the local animal facility and was approved by the Uppsala University board of animal experimentation and thus performed according to the UKCCCR guidelines for the welfare of animals in experimental neoplasia (Workman et al (1988)). The mice were anesthetized with isoflurane (Forene; Abbott) during all manipulations. Female, 5 week old, C57BL6/1 mice (Mollegard/Bomhultgard, Denmark) were injected with 0.5×10^6 T241 fibrosarcoma cells subcutaneously (s.c.) into the left flank. Animals carrying palpable tumours were randomized (n=7-10 animals/treatment group) and received treatment with vehicle (PBS), 4 mg/kg/day of pHRGP or 5 mg/kg/day of human IgG or His-HRGP, given as daily subcutaneous injections in the right flank. The tumours were measured with a caliper once a day, in a blind procedure, and volumes were calculated by the formula […]. When the tumours reached the upper limit of 2 cm^3, the mice were sacrificed. Three animals in each group were perfused with 4% paraformaldehyde in PBS pH 7.4. Tumours were embedded in paraffin according to standard histological procedures and sectioned at […] thickness.
C57/bl6 mice were inoculated subcutaneously with T241 fibrosarcoma cells on their left flank and when the tumours were palpable (after 4-6 days), a daily treatment was initiated with HRGP or control (PBS; FIG. 2A, or human IgG; FIG. 2B). Endostatin was included in one study for comparison (FIG. 2B). The treatment was given as subcutaneous injections in the right flank until the size of the control tumours reached the upper limit of […] (11 days; FIG. 2A, 14 days; FIG. 2B). Injections with both pHRGP (4 mg/kg/day) and His-HRGP (5 mg/kg/day) led to a drastic reduction in tumour growth and at the time of sacrifice, the size of the tumours was reduced by 67% (FIG. 2A) and 61% (FIG. 2B) respectively, compared to control-treated animals. Endostatin treatment (25 mg/kg/day) lacked significant inhibitory effect on tumour growth in this model (32% decrease).

In the case of “HRGP: mature human Histidine Rich Glycoprotein, about 507 amino acid residues”, the “tumour apoptosis compared to control group” value (T241 fibrosarcoma cells [1]; TUNEL staining, HRGP vs IgG control) is reported as “No difference in tumour apoptosis”, the “percentage of apoptotic (TUNEL-positive) cells in the tumours” value (T241 fibrosarcoma cells [1]; tumours from HRGP-treated mice) is reported as “less than 1%” and the “proportion of proliferating (Ki67-positive) cells in tumours” value (T241 fibrosarcoma cells [1]; tumours from HRGP-treated mice, control 43%) is reported as 29%. The “FGF-2-induced chemotaxis of NIH 3T3 murine fibroblasts” value [2] was “not inhibited” and the “reduction in tumour volume compared to control-treated mice” value (T241 fibrosarcoma cells [3]) was “more than 60%”.
